In test [1] the test system is apolipoprotein E4 (ApoE4) Alzheimer's disease yeast model. The experiment in a line: ApoE4 yeast model rescue (growth, OD600). Format: cell-based, Saccharomyces cerevisiae. The conditions noted are these: 12-point dose. From the text:
Strain ApoE-mga2Δ was generated by amplifying 1000 base pairs (bp) upstream and downstream of the MGA2 ORF in a strain in which MGA2 was deleted using a G418 (GENETICIN®) resistance cassette (kanMX) (Piotrowski et al. Proc. Natl. Acad. Sci. USA 112(12):E1490-1497, 2015) and transforming the resulting deletion cassette into the ApoE4 strain in the BY4741 (ATCC 201388) genetic background. The ApoE strain is described, for example, in International Patent Application Publication No. WO 2016/040794, which is incorporated herein by reference in its entirety.
All compound profiling experiments were performed using the same basic protocol. Different genetic backgrounds (e.g., gene deletions) or conditions (e.g., addition of oleic and palmitoleic acid) were replaced as indicated below.
Yeast were cultured using standard techniques in complete synthetic media (CSM) and yeast nitrogen base supplemented with 2% (w/v) carbon source (glucose, raffinose, or galactose) to regulate the expression of the toxic disease protein. An initial starter culture was inoculated in 3 mL CSM-Glucose media and incubated overnight in a 30° C. shaker incubator (225 rpm). […]
(§1) After yeast delivery, assay plates were incubated under humidified conditions at 30° C. for 24 to 40 h. […] The growth of yeast was monitored by reading the OD600 of each well using a microplate reader (Perkin Elmer EnVision™). […]

A further test relates to Ole1/SCD. The experiment in a line: Yeast growth inhibition in control / wild-type condition (OD600). Format: cell-based, Saccharomyces cerevisiae. To be noted: ApoE4 strain, non-inducing conditions, raffinose.
Description: Strain GMYF was constructed from the ABC16/Green monster strain described in Suzuki et al. Nat. Methods 8(2):159-164, 2011. In this strain, YAP1 was deleted using a HIS3-MX6 cassette, and FLR1 was deleted using a NAT-MX6 cassette using standard methods. The knockout cassettes were PCR-amplified from plasmid templates (see, e.g., Bahler et al. Yeast 14(10):943-951, 1998; Longtine et al. Yeast 14(10):953-961, 1998) and transformed into yeast using lithium acetate-based transformation (Gietz et al. Methods Mol. Biol. 1205:1-12, 2014). The yap1::his3 deletion strain was selected on media lacking histidine and flr1::NAT on plates containing 100 μg/mL nourseothricin. All strains were confirmed by diagnostic PCR. Strain W303 pdr1Δ pdr3Δ was constructed from W303-1A (American Type Culture Collection (ATCC) 208352) by deleting PDR1 and PDR3 with kan-MX6 cassettes separately in MATa and MATα W303a isolates, mating, sporulating, and identifying the double deletion haploids by tetrad dissection and identification of non-parental ditype tetrads. Strain W-erg3 was derived from W303 pdr1Δ pdr3 by deleting SNQ2 with NAT-MX6, YAP1 with HIS3-MX6, and ERG3 with BleMX. […]
as §1

As to `COc1ccc(-c2noc(C3CCN(C(=O)CNC(=O)c4ccccc4)CC3)n2)cc1OC` [Compound 1, N-(2-(4-(3-(3,4-dimethoxyphenyl)-1,2,4-oxadiazol-5-yl)piperidin-1-yl)-2-oxoethyl)benzamide], in test [1], the “rescue dose-response in ApoE4 model (OD600)” value is “bell-shaped dose-response curve”. In addition, the “growth in control (non-inducing) condition” value with Ole1/SCD is on record as “growth decreased at this same concentration”.

(Values after US20200222400A1, “METHODS FOR THE TREATMENT OF NEUROLOGICAL DISORDERS” (Yumanity Therapeutics, Inc., priority 2019, published 2020).)
